# Measured values: patent US10206398B2, “Five-membered C-N-attached aryl sulphide and aryl sulphoxide derivatives as pesticides” (BAYER CROPSCIENCE AKTIENGESELLSCHAFT, priority 2014, dated 2019)
# Read-outs that look alike come from different tables or passages of the source.
# Columns and labels:
# [1] = system: Tetranychus urticae; assay: Tetranychus urticae - spray test, OP-resistant (bean leaf discs, 6 days); assay type: in vivo; details: after 6 days; for pest or weed control at 500 g/ha: Tetranychus urticae, foliar, 144 h, read-out: efficacy (spider mites killed)
# Method: 5. Tetranychus urticae—Spray Test, OP-Resistant
# Solvent: 78.0 parts by weight of acetone
# • 1.5 parts by weight of dimethylformamide Emulsifier: alkylaryl polyglycol ether
# To produce a suitable preparation of active compound, 1 part by weight of active compound is dissolved using the stated parts by weight of solvent and made up with water containing an emulsifier concentration of 1000 ppm until the desired concentration is attained. To produce further test concentrations, the preparation is diluted with emulsifier-containing water.
# Discs of bean leaves (Phaseolus vulgaris) infested with all stages of the greenhouse red spider mite (Tetranychus urticae) are sprayed with an active compound preparation of the desired concentration.
# After 6 days, the efficacy in % is determined. 100% means that all the spider mites have been killed; 0% means that no spider mites have been killed.
# [2] = log P determination by HPLC on reversed-phase columns (C 18), analogous to OECD Guideline 117; assay type: physicochemical; details: for logP[a]: method [a]; for logP[b]: method [b]; for chromatographic logP: reversed-phase HPLC column (C 18)
# Method: The log P values were determined analogously to OECD Guideline 117 (EC Directive 92/69/EEC) by HPLC (high-performance liquid chromatography) using reversed-phase columns (C 18), by the following methods: [a] The LC-MS determination in the acidic range was effected at pH 2.7 with 0.1% aqueous formic acid and acetonitrile (contains 0.1% formic acid) as eluents; linear gradient from 10% acetonitrile to 95% acetonitrile. log P[a] is also referred to as log P(HCOOH). [b] LC-MS determination in the neutral range was effected at pH 7.8 with 0.001 molar aqueous ammonium hydrogencarbonate solution and acetonitrile as eluents; linear gradient from 10% acetonitrile to 95% acetonitrile. log P[b] is also referred to as log P(neutral). Calibration is effected with solutions of a homologous series of unbranched alkan-2-ones (having 3 to 16 carbon atoms) with known log P values (log P values determined on the basis of the retention times by linear interpolation between two successive alkanones).
# [3] = pH 2.7, HPLC, acidic range, pH 2.7, 0.1% aqueous formic acid and acetonitrile, read-out: log P(HCOOH)
# [4] = pH 2.7, Table 3, HPLC, acidic range, pH 2.7, read-out: logP[a]
# [5] = pH 7.8, HPLC, neutral range, pH 7.8, 0.001 molar aqueous ammonium hydrogencarbonate and acetonitrile, read-out: log P(neutral)
# [6] = pH 7.8, Table 3, HPLC, neutral range, pH 7.8, read-out: logP[b]
# [7] = pH 2.7, method [a], read-out: logP[a]
# [8] = pH 7.8, method [b], read-out: logP[b]
logP[a] [2],logP[b] [2],Compound,efficacy (spider mites killed) ([1]; 500 g/ha) [%],also measured
3.01,2.93,Cc1cc(F)c(N2C(=O)CN(C(=O)NC(C)C)C2=S)cc1[S+]([O-])CC(F)(F)F (centres unmarked) [compound 14],100,
3.37,3.33,Cc1cc(C)c([S+]([O-])CC(F)(F)F)cc1N1C(=O)CN(C(=O)Nc2cccc(Cl)c2)C1=O (racemic) [compound 69],,efficacy (spider mites killed) ([1]; 100 g/ha): 90%
,,"Cc1cc(F)c(N2C(=O)NC(C)(C)C2=O)cc1SCC(F)(F)F [IIa-5, 3-[2-Fluoro-4-methyl-5-(2,2,2-trifluoroethylsulphanyl)phenyl]-5,5-dimethylimidazolidine-2,4-dione]",,"chromatographic logP [2, 3]: 2.61; chromatographic logP [2, 4]: 2.61; chromatographic logP [2, 5]: 2.53; chromatographic logP [2, 6]: 2.53"
4.37,4.33,Cc1cc(F)c(N2C(=O)N(C(=O)NCc3ccccc3)C(C)(C)C2=O)cc1SCC(F)(F)F [compound 77],100,
3.91,3.99,CC(C)CNC(=O)N1CC(=O)N(c2cc(SCC(F)(F)F)c(Cl)cc2Cl)C1=O [compound 105],100,
,,"CCNC(=O)N1C(=O)N(c2cc(SCC(F)(F)F)c(C)cc2F)C(=O)C1C (centres unmarked) [Ex. No. 24, N-Ethyl-3-[2-fluoro-4-methyl-5-(2,2,2-trifluoroethylsulphanyl)phenyl]-5-methyl-2,4-dioxoimidazolidine-1-carboxamide]",,"pest or weed control at 500 g/ha ([1]; 500 g/ha): 100%; chromatographic logP [2, 3]: 3.38; chromatographic logP [2, 7]: 3.38; chromatographic logP [2, 5]: 3.3; chromatographic logP [2, 8]: 3.3"
2.65,2.65,Cc1cc(Cl)c(N2C(=O)CN(C(=O)Nc3ccccn3)C2=O)cc1[S+]([O-])CC(F)(F)F (racemic) [compound 119],,
,,"Cc1cc(F)c(N2C(=O)N(C(=O)NC3CC3)C(C)(C)C2=O)cc1SCC(F)(F)F [Ex. No. 74, N-Cyclopropyl-3-[2-fluoro-4-methyl-5-(2,2,2-trifluoroethylsulphanyl)phenyl]-5,5-dimethyl-2,4-dioxoimidazolidine-1-carboxamide]",,"pest or weed control at 500 g/ha ([1]; 500 g/ha): 100%; chromatographic logP [2, 3]: 3.76; chromatographic logP [2, 7]: 3.76; chromatographic logP [2, 5]: 3.72; chromatographic logP [2, 8]: 3.72"
3.47,3.42,Cc1cc(C)c(N2C(=O)CN(C(=O)Nc3ccccn3)C2=O)cc1SCC(F)(F)F [compound 95],,
2.73,2.70,CCNC(=O)N1C(=O)N(c2cc([S+]([O-])CC(F)(F)F)c(C)cc2F)C(=O)C1(C)C (racemic) [compound 83],90,
1.97,1.94,COCCNC(=O)N1CC(=O)N(c2cc([S+]([O-])CC(F)(F)F)c(C)cc2F)C1=O (racemic) [compound 82],100,
1.36,2.81,Cc1cc(C)c(N2C(=O)CN(C(=O)NC3CC3)C2=O)cc1SCC(F)(F)F [compound 49],100,
1.66,1.69,Cc1cc(F)c(N2C(=O)CN(C(=O)N3CCS(=O)(=O)CC3)C2=O)cc1[S+]([O-])CC(F)(F)F (centres unmarked) [compound 134],90,
3.57,3.47,Cc1cc(C)c([S+]([O-])CC(F)(F)F)cc1N1C(=O)CN(C(=O)Nc2cccc(CC(F)(F)F)c2)C1=O (racemic) [compound 97],90,
,,"Cc1cc(F)c(N2C(=O)CN(C(=O)NC3CC3)C2=S)cc1[S+]([O-])CC(F)(F)F (centres unmarked) [Ex. No. 4, N-Cyclopropyl-3-[2-fluoro-4-methyl-5-(2,2,2-trifluoroethylsulphinyl)phenyl]-4-oxo-2-thioxoimidazolidine-1-carboxamide]",,"pest or weed control at 500 g/ha ([1]; 500 g/ha): 100%; chromatographic logP [2, 3]: 2.64; chromatographic logP [2, 7]: 2.64; chromatographic logP [2, 5]: 2.65; chromatographic logP [2, 8]: 2.65"
,,"Cc1cc(F)c(N2C(=O)CN(C(=O)NC3CC3)C2=O)cc1[S+]([O-])CC(F)(F)F (centres unmarked) [Ex. No. 3, N-Cyclopropyl-3-[2-fluoro-4-methyl-5-(2,2,2-trifluoroethylsulphinyl)phenyl]-2,4-dioxoimidazolidine-1-carboxamide]",,"pest or weed control at 500 g/ha ([1]; 500 g/ha): 100%; chromatographic logP [2, 3]: 2.15; chromatographic logP [2, 7]: 2.15; chromatographic logP [2, 5]: 2.12; chromatographic logP [2, 8]: 2.12"
3.33,3.24,Cc1cc(F)c(N2C(=O)CN(C(=O)NCC(C)C)C2=S)cc1[S+]([O-])CC(F)(F)F (centres unmarked) [Ex. No. 13],90,
2.77,2.76,COCCNC(=O)N1CC(=O)N(c2cc(SCC(F)(F)F)c(C)cc2F)C1=O [compound 66],100,

logP[a] [2],logP[b] [2],Compound,efficacy (spider mites killed) ([1]; 500 g/ha) [%],also measured
2.89,2.83,Cc1cc(F)c(N2C(=O)CN(C(=O)Nc3ccccc3)C2=O)cc1[S+]([O-])CC(F)(F)F (centres unmarked) [compound 19],90,
3.43,3.35,Cc1cc(F)c(N2C(=O)C(C)N(C(=O)NC3CC3)C2=O)cc1SCC(F)(F)F (centres unmarked) [compound 25],100,
3.98,3.87,Cc1cc(F)c(N2C(=O)CN(C(=O)NC(C)C)C2=S)cc1SCC(F)(F)F [compound 5],,
3.48,3.38,Cc1cc(F)c(N2C(=O)N(C(=O)NCc3ccccc3)C(C)(C)C2=O)cc1[S+]([O-])CC(F)(F)F (racemic) [compound 87],100,
2.4,2.44,"Cc1cc(F)c(N2C(=O)CN(C(=O)NCC(F)(F)F)C2=O)cc1[S+]([O-])CC(F)(F)F (single isomer, unassigned) [Ex. No. 135]",,
3.86,3.90,O=C(NCc1ccccc1)N1CC(=O)N(c2cc(SCC(F)(F)F)c(Cl)cc2Cl)C1=O [compound 107],,
4.32,4.19,Cc1cc(C)c(N2C(=O)CN(C(=O)Nc3cccc(Cl)c3)C2=O)cc1SCC(F)(F)F [compound 56],,
,,"Cc1cc(F)c(N2C(=O)CN(C(=O)NC3CC3)C2=S)cc1SCC(F)(F)F [Ex. No. 2, N-Cyclopropyl-3-[2-fluoro-4-methyl-5-(2,2,2-trifluoroethylsulphanyl)phenyl]-4-oxo-2-thioxoimidazolidine-1-carboxamide]",,"chromatographic logP [2, 3]: 3.66; chromatographic logP [2, 7]: 3.66; chromatographic logP [2, 5]: 3.56; chromatographic logP [2, 8]: 3.56"
,,"Cc1cc(F)c(N2C(=O)NC(C)C2=O)cc1SCC(F)(F)F (centres unmarked) [IIa-3, 3-[2-Fluoro-4-methyl-5-(2,2,2-trifluoroethylsulphanyl)phenyl]-5-methylimidazolidine-2,4-dione]",,"chromatographic logP [2, 3]: 2.34; chromatographic logP [2, 4]: 2.34; chromatographic logP [2, 5]: 2.31; chromatographic logP [2, 6]: 2.31"
3.95,3.86,Cc1cc(C)c(N2C(=O)CN(C(=O)Nc3ccc(F)cc3)C2=O)cc1SCC(F)(F)F [compound 93],,
3.91,3.86,CCNC(=O)N1CC(=O)N(c2cc(SCC(F)(F)F)c(C)cc2F)C1=S [Ex. No. 8],,
3.55,3.51,Cc1cc(Cl)c(N2C(=O)CN(C(=O)Nc3ccccn3)C2=O)cc1SCC(F)(F)F [compound 96],,
4.02,3.95,Cc1cc(F)c(N2C(=O)N(C(=O)NCC(F)(F)F)C(C)(C)C2=O)cc1SCC(F)(F)F [compound 75],,
3.53,3.59,Cc1cc(F)c(N2C(=O)CN(C(=O)N(C)CC(C)C)C2=O)cc1SCC(F)(F)F [compound 124],,
3.72,3.70,CCNC(=O)N1C(=O)N(c2cc(SCC(F)(F)F)c(C)cc2F)C(=O)C1(C)C [compound 73],,
4.27,4.18,Cc1cc(F)c(N2C(=O)CN(C(=O)NCC(C)C)C2=S)cc1SCC(F)(F)F [compound 11],,
2.77,2.76,Cc1cc(C)c([S+]([O-])CC(F)(F)F)cc1N1C(=O)CN(C(=O)NCC(C)C)C1=O (centres unmarked) [compound 35],,
2.37,2.75,Cc1cc(F)c(N2C(=O)CN(C(=O)Nc3cccnc3)C2=O)cc1SCC(F)(F)F [compound 17],,
